According to patent US9974727B2, “Hair growth and hair restoration material” (INSTITUTE OF RHEOLOGICAL FUNCTION OF FOOD CO., LTD., priority 2011, dated 2018):

How the values were obtained:
Assay type in all cases: in vivo
[1] = system: VEGF (vascular endothelial cell growth factor); experiment: Preliminary test for hair growth using mice, VEGF immunostaining of skin; details: 10 pg/mL, 3 hours after application
Protocol: (§1) A 70% by mass aqueous ethanol solution containing FCG obtained in Production Example 1 at a concentration of 10 pg/mL (sample solution) was prepared.
(§2) The sample solution (20 μL) was applied onto the shaved back skin of four 9-week-old ICR male mice, and skin was collected after 3 hours and after 6 hours.
(§3) The skin was subjected to immunostaining for bFGF (basic fibroblast growth factor), Hsp70 (heat shock protein 70), and VEGF (vascular endothelial cell growth factor) by the fluorescent antibody technique and HE staining (hematoxylin-eosin staining), and samples of 14 μm-thick cryostat sections were prepared.

[2] = system: Hsp70 (heat shock protein 70); experiment: Preliminary test for hair growth using mice, Hsp70 immunostaining of skin; details: 10 pg/mL, 3 hours after application; hair papilla cells of hair root in telogen
Protocol: as §1, §2, §3

[3] = system: head hair; experiment: Hair growth effect on human head hair; details: person
Protocol: (§4) The hair growth effect of FCG on head hair of a person was examined.
After hair was thoroughly washed and dried completely with a dryer, about 3.5 mL of a 70% by mass aqueous ethanol solution (sample solution) containing FCG at a concentration of 10 pg/mL was evenly applied, to the scalp once a day.
Before use of the sample solution and 4 months after start of use, photographs were taken by a digital camera from the forehead and the top of head.
as §4
After hair was thoroughly washed and naturally dried completely, about 3.5 mL of a 70% by mass aqueous ethanol solution (sample solution) containing FCG at a concentration of 10 pg/mL was evenly applied to the scalp once a day.
On the date of start of use of the sample solution and 5 months after start of use, photographs of the forehead and the top of head were taken by a digital camera.

[4] = system: shaved back skin of ICR male mice; experiment: Preliminary test for hair growth using mice, HE staining of skin; details: 10 pg/mL, 20 μL
Protocol: as §1, §2, §3

[5] = system: C3H male mice; experiment: Hair growth test on shaved backs of mice; details: for Hair growth state 2 weeks after application: 20 μL on shaved back, mice with hair growth / mice
Protocol: The FCG obtained in Production Example 1, the SCG obtained in Production Example 2, the CSG obtained in Production Example 3, and the RSG obtained in Production Example 4 were each dissolved, in 70% by mass ethanol water, and the following solutions were prepared:
Furthermore, commercially available cholesterol (hereinafter, abbreviated as “Cho”) was dissolved in 70% by mass ethanol water to prepare a Cho 10 pg/mL solution.
The body hair on the back of 8 to 9-week-old C3H male mice was shaved using an electric clippers for animal use (“Thrive clipper, Model 600AD” manufactured by Daito Electric Company) together with a rotary shaver (National ES611).
Each of the sample solutions (20 μL) was applied in four portions to the skin in central parts of the shaved backs of mice while repeating air drying. The application was conducted 24 hours after shaving.
The hair growth effect was evaluated 2 weeks after the application of the sample solution on the basis of observation with the naked eye and photographs taken by a digital camera. Furthermore, as controls, mice applied with 70% by mass ethanol water and mice not applied with a sample solution were used.

[6] = system: bFGF (basic fibroblast growth factor); experiment: Preliminary test for hair growth using mice, bFGF immunostaining of skin
Protocol: as §1, §2, §3

[7] = 10 pg/mL, about 3.5 mL once a day, 5 months after start of use
[8] = C3H mice, 2 weeks after application
[9] = 10 pg/mL, 6 hours after application

Row | SMILES | VEGF expression (immunostaining) [1] | Hsp70 expression (immunostaining) [2] | Hair growth on forehead and top of head ([3]; 10 pg/mL, about 3.5 mL once a day, 4 months after start of use) | Hair growth on forehead [3, 7] | Hair growth on top of head [3, 7] | Side effects ([3]; one year after start of use) | HE staining, hair root and hair bulb ([4]; 3 hours after application, one of two mice) | HE staining, hair root ([4]; 6 hours after application) | Hair growth state 2 weeks after application ([5]; 1 pg/mL in 70% ethanol water) | Hair growth state 2 weeks after application ([5]; 10 pg/mL in 70% ethanol water) | Hair growth state 2 weeks after application ([5]; 100 pg/mL in 70% ethanol water) | Death of mice during hair growth test ([5]; 100 pg/mL, 2 weeks after application) | Hair growth action at 1 pg/mL compared with 10 pg/mL [5, 8] | bFGF expression (immunostaining) ([6]; 10 pg/mL, 3 hours after application, hair follicle, epidermis, bulge region, external root sheath, erector pili muscles) | bFGF expression in erector pili muscles (immunostaining) [6, 9] | bFGF expression in hair papilla cells (immunostaining) [6, 9] | bFGF expression, conclusion ([6]; epidermis, external root sheath, bulge region, hair matrix) | Hair growth action (summary of Table 1) [5, 8]
1 | CC(C)CCC[C@@H](C)[C@H]1CC[C@H]2[C@@H]3CC=C4C[C@@H](O[C@@H]5O[C@H](CO)[C@@H](O)[C@H](O)[C@H]5O)CC[C@]4(C)[C@H]3CC[C@]12C [FCG, cholesteryl glucopyranoside] | VEGF positive reaction was found in hair papilla cells in the hair matrix | Weak to moderate expression of Hsp70 was detected | a large amount of hair growth was observed | hair growth was observed | a good amount of hair growth was observed | side effects are not recognized | local extension of the hair root and enlargement of the hair bulb were observed | Most of the hair roots extended to the subcutaneous tissue | 6/8 | 4/8 | 5/7 | one mouse died | higher | Strong expression of bFGF was detected | reduced to moderate | became weak | expression of bFGF is induced | –
2 | CC(C)CCC[C@@H](C)[C@H]1CC[C@H]2[C@@H]3CC=C4C[C@@H](O[C@@H]5O[C@H](CO)[C@@H](O)[C@H](O)[C@H]5O)CC[C@]4(C)[C@H]3CC[C@]12C [SCG, cholesteryl-β-D-glucopyranoside] | – | – | – | – | – | – | – | – | 6/8 | ⅝ | ⅜ | – | – | – | – | – | – | same hair growth action as that of the cholesteryl glucopyranoside derived from feathers (FCG)
3 | CC(C)CCC[C@@H](C)[C@H]1CC[C@H]2[C@@H]3CC=C4C[C@@H](O)CC[C@]4(C)[C@H]3CC[C@]12C [Cho, cholesterol, reference compound] | – | – | – | – | – | – | – | – | – | 4/8 | – | – | – | – | – | – | – | weak
